Read-outs that look alike come from different tables or passages of the source.
Assays:
RORγt [1] = target: T1, RORγt (Homo sapiens, UniProt P51449); assay: RORγt binding test (TR-FRET, fluorescent-labeled cholesterol); settings: read-out: binding inhibitory rate (%) of fluorescent-labeled cholesterol to RORγt at test compound 1 μM
T1 sequence (P51449 1-497 isoform P51449-2): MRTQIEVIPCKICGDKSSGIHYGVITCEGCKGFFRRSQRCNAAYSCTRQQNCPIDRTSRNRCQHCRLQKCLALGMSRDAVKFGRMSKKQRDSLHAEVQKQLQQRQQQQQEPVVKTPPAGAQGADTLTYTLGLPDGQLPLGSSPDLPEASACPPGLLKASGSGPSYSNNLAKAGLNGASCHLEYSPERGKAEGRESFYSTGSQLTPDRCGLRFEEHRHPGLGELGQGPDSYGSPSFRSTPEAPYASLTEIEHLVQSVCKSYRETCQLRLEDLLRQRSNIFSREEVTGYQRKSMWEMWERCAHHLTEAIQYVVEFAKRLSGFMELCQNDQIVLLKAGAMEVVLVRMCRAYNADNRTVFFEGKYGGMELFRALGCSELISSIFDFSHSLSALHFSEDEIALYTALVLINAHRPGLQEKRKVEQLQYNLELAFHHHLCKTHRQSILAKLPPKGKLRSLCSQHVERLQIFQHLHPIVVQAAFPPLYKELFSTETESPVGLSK
Experimental: The binding activity of the test compound to RORγt was measured by a time resolved fluorescence resonance energy transfer method (TR-FRET) utilizing histidine-tagged RORγt, fluorescent-labeled cholesterol (BODIPY-cholesterol, AVIVA), and terbium-labeled anti-histidine tag antibody (Invitrogen). First, a test compound diluted with an assay buffer (20 mM Tris-HCl (pH 7.5), 100 mM NaCl, 1 mM DTT, 0.1% BSA) was added to a 384 well plate by 3 μL. Then, RORγt diluted with an assay buffer to 240 nM was added by 3 μL, after which fluorescent-labeled cholesterol diluted with the assay buffer to 12 μM was added by 3 μL, and the mixture was stood at room temperature for 20 min. Thereafter, a terbium-labeled anti-histidine tag antibody diluted with the assay buffer to 8 nM was added by 3 μL. The mixture was stood at room temperature for 20 min, and fluorescence intensity (excitation wavelength 320 nm, fluorescence wavelength 520 nm, delay time 100 microseconds) was measured by Envision (PerkinElmer).

RORγt [2] = target: T1, RORγt; assay: Cofactor recruitment test (Alpha Screen, biotinylated SRC-1 peptide); type: biochemical; settings: read-out: signal value inhibitory rate (%) at test compound 1 μM
Experimental: Cofactor Recruitment Test
Cofactor recruitment test was performed by Alpha Screen (Histidine Detection Kit, PerkinElmer) method. First, a test compound was diluted with an assay buffer (50 mM Tris-HCl (pH 7.5), 50 mM KCl, 1 mM DTT, 0.1% BSA) and added to a 384 well plate by 5 μL. […] The mixture was stood in a dark place for 1 hr, and the signal value was measured by Envision (PerkinElmer).

RORγt [3] = target: T1, RORγt; assay: Jurkat reporter test (human IL-17 ROR response element luciferase reporter); type: cell-based; settings: read-out: luminescence level inhibitory rate (%) at test compound 3 μM
Experimental: The Jurkat cells used for the reporter test were cultured in a culture medium (RPMI (Invitrogen), 10% FCS (AusGeneX), 100 U/mL penicillin, 100 μg/mL streptomycin). On the day of the test, 4×10^7 cells were recovered by a centrifugal operation (1000 rpm, 5 min.) and suspended in PBS (phosphate buffered saline) (Invitrogen). Thereafter, the cells were recovered again by a centrifugal operation, and suspended in 2 mL of R buffer (NEON transfection kit, Invitrogen). […] Gene transfer was performed by Electroporation apparatus (NEON, Invitrogen) under the conditions of pulse voltage 1350 V, interval 10 milliseconds, number of times 3. The cells after gene transfer were suspended in 40 mL of a reaction medium (RPMI, 10% Lipid reduced FCS (HyClone), 10 mM HEPES (pH 7.5), 100 U/mL penicillin, 100 μg/mL streptomycin, 5 μM lovastatin), and plated in a 96 well plate by 90 μL. A test compound diluted with the reaction medium was added by 10 μL, and the cells were cultured overnight in an incubator. Bright-Glo (Promega) was added by 100 μL, and the mixture was stirred at room temperature for 10 min, and the luminescence level was measured by Envision (PerkinElmer).

[4] = test compound 3 μM, Jurkat cells

inhibition at 3 µM (RORγt [3]; [4]) | SMILES | inhibition at 1 µM (RORγt [1]) | inhibition at 1 µM (RORγt [2]) | inhibition at 3 µM (RORγt [3]; Jurkat)
 | COc1ccc(C(NC(=O)Cc2ccc(=O)[nH]c2)C(=O)Nc2ccc([Si](C)(C)C)cc2)cc1 (stereo not drawn) [Example 16, 2-(4-methoxyphenyl)-2-(((6-oxo-1,6-dihydropyridin-3-yl)acetyl)amino)-N-(4-(trimethylsilyl)phenyl)acetamide] | 102% | 81.9% | 93.2%
 | COCc1ccc([C@@H](NC(=O)C2CCOCC2)C(=O)Nc2ccc([Si](C)(C)C)c(F)c2)cc1 [Example 88, N-((1R)-2-((3-fluoro-4-(trimethylsilyl)phenyl)amino)-1-(4-(methoxymethyl)phenyl)-2-oxoethyl)tetrahydro-2H-pyran-4-carboxamide] | 103% | 90.7% | 98.1%
99.8% | COCc1ccc([C@@H](NC(=O)Cn2ccc(=O)[nH]c2=O)C(=O)Nc2ccc(C(C)(C)C)c(F)c2)cc1 [Example 116, (2R)—N-(4-tert-butyl-3-fluorophenyl)-2-(((2,4-dioxo-3,4-dihydropyrimidin-1(2H)-yl)acetyl)amino)-2-(4-(methoxymethyl)phenyl)acetamide] | 103% | 76.6% | 
 | C[Si](C)(C)c1c(F)cc(NC(=O)[C@H](NC(=O)c2cc(O)no2)C2CCOCC2)cc1F [Example 3, N-((1R)-2-((3,5-difluoro-4-(trimethylsilyl)phenyl)amino)-2-oxo-1-(tetrahydro-2H-pyran-4-yl)ethyl)-3-hydroxy-1,2-oxazole-5-carboxamide] | 100% | 72.3% | 98.4%
 | COc1ccc(C(NC(=O)Cc2ccn(C)n2)C(=O)Nc2ccc([Si](C)(C)C)cc2)cc1 (stereo not drawn) [Example 19, 2-(4-methoxyphenyl)-2-(((1-methyl-1H-pyrazol-3-yl)acetyl)amino)-N-(4-(trimethylsilyl)phenyl)acetamide] | 101% | 50.7% | 84.7%
101% | Cn1ncc2cc([C@@H](NC(=O)Cc3cc(O)no3)C(=O)Nc3cc(F)c(C(C)(C)C)c(F)c3)ccc21 [Example 419, (2R)-N-(4-tert-butyl-3,5-difluorophenyl)-2-(((3-hydroxy-1,2-oxazol-5-yl)acetyl)amino)-2-(1-methyl-1H-indazol-5-yl)acetamide] | 103% | 87% | 
97.4% | CC(C)(C)c1ccc(NC(=O)[C@H](NC(=O)[C@@H]2CNC(=O)C2)c2ccc3c(c2)CCO3)cc1F [Example 111, (3S)—N-((1R)-2-((4-tert-butyl-3-fluorophenyl)amino)-1-(2,3-dihydro-1-benzofuran-5-yl)-2-oxoethyl)-5-oxopyrrolidine-3-carboxamide] | 100% | 53% | 
 | COCc1ccc([C@@H](NC(=O)CCO)C(=O)Nc2cc(F)c([Si](C)(C)C)c(F)c2)cc1 [Example 72, N-((1R)-2-((3,5-difluoro-4-(trimethylsilyl)phenyl)amino)-1-(4-(methoxymethyl)phenyl)-2-oxoethyl)-3-hydroxypropanamide] | 102% | 96.7% | 99.2%
 | CN(C(=O)c1cc(O)no1)C(C(=O)Nc1cc(F)c([Si](C)(C)C)c(F)c1)C1CCOCC1 (stereo not drawn) [Example 6, N-(2-((3,5-difluoro-4-(trimethylsilyl)phenyl)amino)-2-oxo-1-(tetrahydro-2H-pyran-4-yl)ethyl)-3-hydroxy-N-methyl-1,2-oxazole-5-carboxamide] | 102% | 99.4% | 101%
97.5% | CC(C)(C)c1ccc(NC(=O)[C@H](NC(=O)C(O)C(F)(F)F)C2CCOCC2)cc1Cl (single isomer, unassigned) [Example 11] | 102% | 32% | 
 | COCc1ccc(C(NC(=O)Cn2cnccc2=O)C(=O)Nc2cc(F)c([Si](C)(C)C)c(F)c2)cc1 (stereo not drawn) [Example 40, N-(3,5-difluoro-4-(trimethylsilyl)phenyl)-2-(4-(methoxymethyl)phenyl)-2-(((6-oxopyrimidin-1(6H)-yl)acetyl)amino)acetamide] | 101% | 98.7% | 100%
 | COCc1ccc([C@@H](NC(=O)C2CC(F)(F)C2)C(=O)Nc2ccc([Si](C)(C)C)c(F)c2)cc1 [Example 91, 3,3-difluoro-N-((1R)-2-((3-fluoro-4-(trimethylsilyl)phenyl)amino)-1-(4-(methoxymethyl)phenyl)-2-oxoethyl)cyclobutanecarboxamide] | 102% | 94.6% | 98%
 | COc1ccc(C(NC(=O)Cc2cc(C)no2)C(=O)Nc2ccc([Si](C)(C)C)cc2)cc1 (stereo not drawn) [Example 18, 2-(4-methoxyphenyl)-2-(((3-methyl-1,2-oxazol-5-yl)acetyl)amino)-N-(4-(trimethylsilyl)phenyl)acetamide] | 101% | 60.3% | 90.9%
 | COc1ccc([C@@H](NC(=O)N2CC[C@@H](O)C2)C(=O)Nc2ccc([Si](C)(C)C)c(F)c2)cc1 [Example 71, (3R)—N-((1R)-2-((3-fluoro-4-(trimethylsilyl)phenyl)amino)-1-(4-methoxyphenyl)-2-oxoethyl)-3-hydroxypyrrolidine-1-carboxamide] | 101% | 89.9% | 99%
 | COc1ccc(C(NC(=O)Cn2cnc3ccccc32)C(=O)Nc2ccc([Si](C)(C)C)cc2)cc1 (stereo not drawn) [Example 289, 2-((1H-benzimidazol-1-ylacetyl)amino)-2-(4-methoxyphenyl)-N-(4-(trimethylsilyl)phenyl)acetamide] | 99.6% | 87.2% | 100%
 | Cn1ncc2cc(C(NC(=O)[C@@H]3CNC(=O)C3)C(=O)Nc3ccc([Si](C)(C)C)c(F)c3)ccc21 (mixture of isomers) [Example 109, (3S)—N-(2-((3-fluoro-4-(trimethylsilyl)phenyl)amino)-1-(1-methyl-1H-indazol-5-yl)-2-oxoethyl)-5-oxopyrrolidine-3-carboxamide] | 100% | 87.6% | 100%
 | COCc1ccc([C@@H](NC(=O)CN2C(=O)CNC2=O)C(=O)Nc2ccc([Si](C)(C)C)c(F)c2)cc1 [Example 62, (2R)-2-(((2,5-dioxoimidazolidin-1-yl)acetyl)amino)-N-(3-fluoro-4-(trimethylsilyl)phenyl)-2-(4-(methoxymethyl)phenyl)acetamide] | 99.9% | 96.3% | 97.8%
 | COc1ccc(C(NC(=O)C2CNC(=O)C2)C(=O)Nc2ccc([Si](C)(C)C)c(C#N)c2)cc1 (stereo not drawn) [Example 27, N-(2-((3-cyano-4-(trimethylsilyl)phenyl)amino)-1-(4-methoxyphenyl)-2-oxoethyl)-5-oxopyrrolidine-3-carboxamide] | 103% | 92.5% | 96%
99.7% | COCc1ccc([C@@H](NC(=O)[C@H]2CNC(=O)C2)C(=O)Nc2cc(F)c(C(C)(C)C)c(F)c2)cc1 [Example 113, (3R)—N-((1R)-2-((4-tert-butyl-3,5-difluorophenyl)amino)-1-(4-(methoxymethyl)phenyl)-2-oxoethyl)-5-oxopyrrolidine-3-carboxamide] | 102% | 83.9% | 

Source: patent publication US11851449B2, “Heterocyclic amide compounds having an RORvt inhibitory action” (TAKEDA PHARMACEUTICAL COMPANY LIMITED, priority 2013, dated 2023)
